Consider 4 compounds from paper PMC12135066, “Design and Preclinical Evaluation of Novel uPAR-Targeting Radiopeptides Modified with an Albumin-Binding Entity” (Molecular Pharmaceutics, 2025).

This data set is described as follows: Stability of the radiopeptides in mouse blood plasma. The conditions noted are these: for remaining at 1 h, 10 MBq/200 µL / remaining at 24 h, 10 MBq/200 µL / remaining at 4 h, 10 MBq/200 µL: mouse; for remaining at 1 h, 10 MBq/200 µL / remaining at 24 h, 10 MBq/200 µL: blood plasma.

Experimental: The radiopeptides (50 MBq/nmol) stabilized with L-ascorbic acid were diluted in mouse and human blood plasma and incubated at 37 °C. Aliquots were taken after 1, 4, and 24 h and analyzed using reversed-phase thin-layer chromatography (TLC) (Supporting Information).
aProduct peak expressed as percentage of the sum of integrated peak areas of the entire chromatogram relative to
the value obtained immediately after labeling (set as 100%), average ± standard deviation (SD) (n=3).
Stability of the Radiopeptides in Mouse and Human Blood Plasma
Purpose: The stability of the radiopeptides was assessed in mouse and human blood plasma as an
indication for their in vivo stability.
Methods: The radiopeptides (50 MBq/nmol) stabilized with L-ascorbic acid were diluted in mouse
blood plasma (Lot: 32321, Rockland Immunochemicals Inc., U.S.A.) or in human blood plasma
(Stiftung Blutspende SRK Aargau -Solothurn, Switzerland) at a concentration of 10 MBq/200 µL and
incubated at 37 °C over a 24 h time period. Control samples were prepared by diluting the radiopeptides
in saline at the same activity concentration. Aliquots of each dilution were taken after 1 h, 4 h, and 24 h
(2 µL, ~100 kBq) and investigated employing thin layer chromatography (TLC) methods on reversed-
phase TLC plates (MERCK Analytical Chromatography, TLC Silica gel 60 RP -18 F254s) as stationary
phase and a 3/7 (v/v) mixture of acetonitrile /citrate buffer (0.1 M, pH 5.5) as mobile phase. A dilution
of [177Lu]LuCl3/HCl 0.04 M (10 MBq/200 µL) was added on each TLC plate. The developed and dried
TLC plates were exposed to a phosphor screen (Super resolution screen PSR10450013, PerkinElmer)
for 1 min. The screen was read with a Cyclone Plus phosphor imager (PerkinElmer) and the peak
quantification was performed using OptiQuant Software (version 5.0).

With `CC(C)C[C@H](NC(=O)[C@H](Cc1ccc(O)cc1)NC(=O)[C@@H](CCCNC(=N)N)NC(=O)[C@@H](CO)NC(=O)[C@H](Cc1ccccc1)NC(=O)[C@H](CC1CCCCC1)NC(=O)[C@H](CC(=O)O)NC(=O)CN1CCN(CC(=O)O)CCN(CC(=O)O)CCN(CC(=O)O)CC1)C(=O)N[C@@H](Cc1c[nH]c2ccccc12)C(=O)N[C@@H](CO)C(N)=O` [[^177Lu]Lu-DOTA-AE105, metal not drawn, reference compound], the amount remaining at 1 h, 10 MBq/200 µL turned out to be 61 ± 6% and the amount remaining at 24 h, 10 MBq/200 µL came to 4.6 ± 2.2%. Also, the “Intact radiopeptide in mouse blood plasma [%]” value (24 h, mouse blood plasma, 10 MBq/200 µL, 50 MBq/nmol, stabilized with L-ascorbic acid, 37 °C, reversed-phase TLC, phosphor imager, relative to t=0 (100%), average ± SD, n=3) was ~4.5%. Also, where the note is “mouse blood plasma”, the amount remaining at 4 h, 10 MBq/200 µL is ~13%.
On to `CC(C)C[C@H](NC(=O)[C@H](Cc1ccc(O)cc1)NC(=O)[C@@H](CCCNC(=N)N)NC(=O)[C@@H](CO)NC(=O)[C@H](Cc1ccccc1)NC(=O)[C@H](CC1CCCCC1)NC(=O)[C@H](CC(=O)O)NC(=O)CCOCCOCCOCCOCCNC(=O)[C@H](CCCCNC(=O)CCCc1ccc(I)cc1)NC(=O)CN1CCN(CC(=O)O)CCN(CC(=O)O)CCN(CC(=O)O)CC1)C(=O)N[C@@H](Cc1c[nH]c2ccccc12)C(=O)N[C@@H](CO)C(N)=O` [[^177Lu]Lu-uPAR-05, metal not drawn], for which the fraction remaining at 1 h, 10 MBq/200 µL was 99 ± 1% and the amount remaining at 24 h, 10 MBq/200 µL is 98 ± 2%. Further, the share remaining at 4 h, 10 MBq/200 µL (mouse blood plasma) was found to be 98 ± 2%.
Regarding `CC(C)C[C@H](NC(=O)[C@H](Cc1ccc(O)cc1)NC(=O)[C@@H](CCCNC(=N)N)NC(=O)[C@@H](CO)NC(=O)[C@H](Cc1ccccc1)NC(=O)[C@H](CC1CCCCC1)NC(=O)[C@H](CC(=O)O)NC(=O)[C@H](CCCCNC(=O)CCCc1ccc(I)cc1)NC(=O)CN1CCN(CC(=O)O)CCN(CC(=O)O)CCN(CC(=O)O)CC1)C(=O)N[C@@H](Cc1c[nH]c2ccccc12)C(=O)N[C@@H](CO)C(N)=O` [[^177Lu]Lu-uPAR-01, metal not drawn], the fraction remaining at 1 h, 10 MBq/200 µL stood at 100% and the amount remaining at 24 h, 10 MBq/200 µL is 99 ± 1%. Besides, the fraction remaining at 4 h, 10 MBq/200 µL (mouse blood plasma) is 100%.
Take `CC(C)C[C@H](NC(=O)[C@H](Cc1ccc(O)cc1)NC(=O)[C@@H](CCCNC(=N)N)NC(=O)[C@@H](CO)NC(=O)[C@H](Cc1ccccc1)NC(=O)[C@H](CC1CCCCC1)NC(=O)[C@H](CC(=O)O)NC(=O)[C@H](CCCCNC(=O)CCCc1ccc(I)cc1)NC(=O)[C@@H](N)CCCCNC(=O)CN1CCN(CC(=O)O)CCN(CC(=O)O)CCN(CC(=O)O)CC1)C(=O)N[C@@H](Cc1c[nH]c2ccccc12)C(=O)N[C@@H](CO)C(N)=O` [[^177Lu]Lu-uPAR-04, metal not drawn]: the share remaining at 1 h, 10 MBq/200 µL came to 101 ± 2% and the amount remaining at 24 h, 10 MBq/200 µL was found to be 98%. For the setting “mouse blood plasma”, the fraction remaining at 4 h, 10 MBq/200 µL turned out to be 99 ± 3%.
